system: TFEB; test: TFEB nuclear translocation assay, HeLa wt cells; type: cell-based; details: Homo sapiens, HeLa, 2 h, 2 hrs compound treatment, Table 1 does not say HeLa wt or TRPML1 KO
Summary of the method: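 Using 20× epifluorescence of fixed, anti-TFEB-stained HeLa wt cells treated 2 hrs with compound, nuclear versus perinuclear ring intensity was quantified over four fields per well, yielding AC50 values.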

First: CC(C)(C)C(=O)N1CCN(c2ccccc2NS(=O)(=O)c2ccc(CC(F)(F)F)cc2)CC1 [Compound A-567, N-{2-[4-(2,2-dimethylpropanoyl)piperazin-1-yl]phenyl}-4-(2,2,2-trifluoroethyl)benzene-1-sulfonamide]
Second: CC(C)(C)C(=O)N1CCN(c2ccccc2NS(=O)(=O)c2ccc(OC(F)(F)F)cc2)CC1 [Compound A-568, N-{2-[4-(2,2-dimethylpropanoyl)piperazin-1-yl]phenyl}-4-(trifluoromethoxy)benzene-1-sulfonamide]
The AC50 of the first is higher: ≥ 10 µM for the first, 8.01 to 9.99 µM for the second.

First: COC(F)(F)C(F)(F)c1ccc(S(=O)(=O)Nc2ccccc2N2CCN(C(=O)C(C)(C)C)CC2)cc1 [Compound A-569, N-{2-[4-(2,2-dimethylpropanoyl)piperazin-1-yl]phenyl}-4-(1,1,2,2-tetrafluoro-2-methoxyethyl)benzene-1-sulfonamide]
Second: CC(C)(C)C(=O)N1CCN(c2ccccc2NS(=O)(=O)c2ccc(C(C)(C)C(F)(F)F)cc2)CC1 [Compound A-572, N-{2-[4-(2,2-dimethylpropanoyl)piperazin-1-yl]phenyl}-4-(1,1,1-trifluoro-2-methylpropan-2-yl)benzene-1-sulfonamide]
The AC50 of the first is higher: 8.01 to 9.99 µM for the first, 2.01 to 8 µM for the second.

First: CC1(C)CC2(CCN(c3ccccc3NS(=O)(=O)Cc3ccccc3)CC2)CO1 [Compound A-570, N-(2-{3,3-dimethyl-2-oxa-8-azaspiro[4.5]decan-8-yl}phenyl)-1-phenylmethanesulfonamide]
Second: COCC1(C)CCN(c2ccccc2NS(=O)(=O)Cc2ccccc2F)CC1 [Compound A-579, 1-(2-fluorophenyl)-N-{2-[4-(methoxymethyl)-4-methylpiperidin-1-yl]phenyl}methanesulfonamide]
The AC50 of the first is lower: ≤ 2 µM for the first, 2.01 to 8 µM for the second.

`COCC1(C)CCN(c2ccccc2NS(=O)(=O)Cc2ccc3c(c2)COCC3)CC1` [Compound A-571, 1-(3,4-dihydro-1H-2-benzopyran-7-yl)-N-{2-[4-(methoxymethyl)-4-methylpiperidin-1-yl]phenyl}methanesulfonamide] and `COCC1(C)CCN(c2ccccc2NS(=O)(=O)Cc2ccc(C)cc2)CC1` [Compound A-578, N-{2-[4-(methoxymethyl)-4-methylpiperidin-1-yl]phenyl}-1-(4-methylphenyl)methanesulfonamide] fall in the same range of AC50: 2.01 to 8 µM for the first, 2.01 to 8 µM for the second.

First: CCCOc1ccc(S(=O)(=O)Nc2ccccc2N2CCN(C(=O)C(C)(C)C)CC2)cc1 [Compound A-573, N-{2-[4-(2,2-dimethylpropanoyl)piperazin-1-yl]phenyl}-4-propoxybenzene-1-sulfonamide]
Second: CC(C)(C)C(=O)N1CCN(c2ccccc2NS(=O)(=O)c2ccc(OC3CC3)cc2)CC1 [Compound A-576, 4-cyclopropoxy-N-{2-[4-(2,2-dimethylpropanoyl)piperazin-1-yl]phenyl}benzene-1-sulfonamide]
The AC50 of the first is lower: 8.01 to 9.99 µM for the first, ≥ 10 µM for the second.

First: CC(C)(C)C(=O)N1CCN(c2ccccc2NS(=O)(=O)c2ccc(SC(F)(F)F)cc2)CC1 [Compound A-574, N-{2-[4-(2,2-dimethylpropanoyl)piperazin-1-yl]phenyl}-4-[(trifluoromethyl)sulfanyl]benzene-1-sulfonamide]
Second: CC(C)(C)C(=O)N1CCN(c2ccccc2NS(=O)(=O)c2ccc(S(F)(F)(F)(F)F)cc2)CC1 [Compound A-575, N-{2-[4-(2,2-dimethylpropanoyl)piperazin-1-yl]phenyl}-4-(pentafluoro-λ^6-sulfanyl)benzene-1-sulfonamide]
The AC50 of the first is lower: 2.01 to 8 µM for the first, 8.01 to 9.99 µM for the second.

First: COCC1(C)CCN(c2ccccc2NS(=O)(=O)c2ccc(Cl)cc2)CC1 [Compound A-577, 4-chloro-N-{2-[4-(methoxymethyl)-4-methylpiperidin-1-yl]phenyl}benzene-1-sulfonamide]
Second: COCC1(C)CCN(c2ccccc2NS(=O)(=O)Cc2ccc(F)cc2)CC1 [Compound A-580, 1-(4-fluorophenyl)-N-{2-[4-(methoxymethyl)-4-methylpiperidin-1-yl]phenyl}methanesulfonamide]
The AC50 of the first is lower: 2.01 to 8 µM for the first, 8.01 to 9.99 µM for the second.
